Assay results taken from patent publication US8003663B2, “Pyrazolo[3,4-b]pyridine compounds, and their use as PDE4 inhibitors” (Glaxo Group Limited, priority 2006, dated 2011).
“Also recorded” adds a separate entry of the source. Where a name gives a salt, the structure may show the parent alone.

Columns and labels:
[1] = cited from earlier work
[2] = tested on: LPS-induced pulmonary neutrophilia in rats; experiment: In Vivo Assay 1: LPS induced pulmonary neutrophilia in rats, intratracheally administered PDE4 inhibitors; parameters: species or system rat; conditions: for percentage mean inhibition of LPS-induced pulmonary neutrophilia / arithmetic mean percentage inhibition of LPS-induced pulmonary neutrophilia: rat, about 2 hours prior to LPS; for percentage mean inhibition of LPS-induced pulmonary neutrophilia: i.t. aqueous solution; for arithmetic mean percentage inhibition of LPS-induced pulmonary neutrophilia: i.t. dry powder blended in lactose; for duration of action: preliminary tests
Description: This assay is an animal model of acute inflammation in the lung—specifically neutrophilia induced by lipopolysaccharide (LPS)—and allows the study of putative inhibition of such neutrophilia (anti-inflammatory effect) by an intratracheally (i.t.) administered PDE4 inhibitor (“drug”). The PDE4 inhibitors are suitably in dry powder, aqueous solution or aqueous suspension form. I.t. administration is one model of inhaled administration, allowing topical delivery to the lung.
Animals: Male CD (Sprague Dawley Derived) rats supplied by Charles River, United Kingdom are housed in groups of 5 rats per cage, acclimatised after delivery for at least 7 days with bedding/nesting material regularly changed, fed on SDS diet R1 pelleted food given ad lib, and supplied with daily-changed pasteurised animal grade drinking water.
Device for dry powder administration: For these studies, a Penn Century DP-4 dry powder intratracheal (i.t.) delivery device (insufflator) is used for administration of a dry powder blend of vehicle (inhalation grade lactose) and the PDE4 inhibitor compound or salt of the invention (“drug”). Each device is numbered and the sample loading chamber is unscrewed from the main device and weighed. The i.t. delivery needle is also weighed. The drug+lactose blend or inhalation grade lactose (vehicle control) is then added to the sample chamber and this is then re-weighed. The sample chamber is fitted back on to the main device to prevent any drug being lost. This procedure is repeated for all of the Penn century devices to be used in the study (one separate device for each animal). After dosing to the animals, the sample chambers and needles are re-weighed in order to determine the amount of sample that was expelled from the device.
Device for aqueous solution administration: A blunt dosing needle, whose forward end is slightly angled to the needle axis, is used, with a flexible plastic portex canula inserted into the needle. The portex cannula is inserted into the lumen of the blunt stainless steel dosing needle and this is carefully inserted into the back of the animal's throat and into the trachea via the larynx. A known volume (200 microliters) of the vehicle (0.2% Tween 80™ in saline) or of the solution (or suspension) drug composition is administered into the trachea using a plastic syringe that is attached to the portex cannula and dosing needle. A new internal cannula is used for each different drug group. After dosing, the needle is removed from the trachea and the animals are removed from the table and continually observed until they recover from the effects of anaesthesia. The animals are then returned to the holding cages and given free access to food and water, and are observed and any unusual behavioural changes noted. (Aqueous suspensions can be handled generally similarly.)
Drugs and Materials: Lipopolysaccharide (LPS) (Serotype:0127:B8, e.g. from Sigma, UK; e.g. L3129 prepared by phenol extraction) is dissolved in phosphate-buffered saline (PBS).
For dry powder, aqueous solution or aqueous suspension administration, PDE4 inhibitors are preferably used in size-reduced (e.g. micronised) form, for example according to the Micronisation Example(s) disclosed herein.
For dry powder administration of the drug, the PDE4 inhibitor compound or salt of the invention (drug) is administered as a dry powder blended with inhalation-grade (respiratory-grade) lactose, i.e. as a dry powder composition. The target quantity of dry powder composition administered i.t. to each animal is 2 mg. This remains constant throughout the studies. To achieve different doses, blends of the drug dry powder and lactose, containing different concentrations of the PDE4 inhibitor compound or salt of the invention (drug), are prepared. […]

[3] = tested on: LPS-induced nasal neutrophilia in rats; experiment: In vivo assay 2: LPS induced nasal neutrophilia in rats, intranasally administered PDE4 inhibitors; conditions: rat, i.n. aqueous solution, about 30 minutes prior to LPS
Description: This assay is an animal model of acute inflammation in the nose—specifically neutrophilia induced by lipopolysaccharide (LPS)—and allows the study of putative inhibition of such neutrophilia (anti-inflammatory effect) by an intranasally (i.n.) administered PDE4 inhibitor (“drug”). The PDE4 inhibitor is preferably in the form of an aqueous suspension or aqueous solution. Bolus, i.n. administration allows topical delivery to the nose.
Animals: Male CD rats (Sprague Dawley derived), weighing between 300-350 g are supplied by Charles River, UK and transported to the test site. On arrival at the test site, the animals are housed in groups of 4 or 5 per cage and complete a minimum acclimatisation period of 7 days. The animals are housed in solid bottomed cages using grade 8 sawdust. The bedding and nesting materials are changed 3 times per week. Diet comprises SDS diet R1 pelleted food given ad lib. Pasteurised animal grade drinking water is supplied and changed daily.
Lipopolysaccharide (Serotype: 0127:B8, e.g. available from Sigma, UK; e.g. L3129 prepared by phenol extraction) is used for all studies and is dissolved in phosphate-buffered saline (PBS).
Tween 80™ (e.g. available from Sigma e.g. 023K 01575). A mixture of 0.2% Tween 80™ in phosphate buffered saline (PBS) is prepared as vehicle for solution compositions. The Sigma catalogue 2004-2005 and The Handbook of Pharmaceutical Excipients (HPE) 4th edition 2003 pp. 479-483 define Tween 80™ as a brand of polysorbate 80 (according to HPE, polysorbate 80 is also named polyoxyethylene 20 sorbitan monooleate, i.e. having been copolymerised with about 20 moles of ethylene oxide for each mole of sorbitol and/or sorbitol anhydrides used).
The PDE4 inhibitor compound or salt of the invention (“drug”) is preferably used in size-reduced (e.g. micronised) form, for example according to the Micronisation Example(s) disclosed herein.
A solution of compound (0.7 mg/ml) is generally prepared by adding 0.2% Tween 80™ in phosphate buffered saline (PBS) to a pre-weighed micronised sample of the drug. The solution composition is sonicated, e.g. for approximately 2 min, and is observed to be a solution (if it is a solution) by visual assessment. A fixed volume of 50 microliters (25 microliters into each nostril) of either the drug-containing solution composition or a saline/Tween 80™ vehicle is administered to all animals. Each animal weighs, on average, 350 g. To achieve a dose of 100 μg/kg (100 ug/kg), each animal receives a total of 35 μg (35 ug) of the drug. The dose volume is 50 microliters (25 microliters to each nostril), and therefore a concentration of 35 μg (ug) per 50 microliters (0.7 mg/ml) is prepared. To achieve lower dose concentrations, serial dilutions are prepared in saline/Tween 80™. […]

[4] = cited from earlier work; remark: listed apart in the source
[5] = orally 500 ug once daily for 9 days; daily intranasal allergen provocation (pollen extracts); cited from earlier work

In the case of COc1ccc(C2CNC(=O)NC2)cc1O[C@H]1C[C@@H]2CC[C@H]1C2 [CP80,633], the “inflammatory parameters in atopic dermatitis patients” value ([1]; 0.5% ointment, twice daily topical application) is listed as “reductions of inflammatory parameters”.
In the case of CCc1nc2c(cnn2CC)c(NC2CCOCC2)c1CNC(=O)c1ccc(NC(=O)CCCCCCCN(C)CCO)cc1 [Example 1A1, N-{[1,6-Diethyl-4-(tetrahydro-2H-pyran-4-ylamino)-1H-pyrazolo[3,4-b]pyridin-5-yl]methyl}-4-({8-[(2-hydroxyethyl)(methyl)amino]octanoyl}amino)benzamide dihydrochloride], the “percentage mean inhibition of LPS-induced pulmonary neutrophilia” value (“percentage mean inhibition” for short) ([2]; about 10 micrograms/kg, dihydrochloride) is reported as “about 33%”, the “percentage mean inhibition” value ([2]; about 30 micrograms/kg, dihydrochloride) is reported as “about 56%” and the “percentage mean inhibition” value ([2]; about 100 micrograms/kg, dihydrochloride) is reported as “about 76%”. For the same compound, the “percentage mean inhibition” value ([2]; about 300 micrograms/kg) was “about 74%”.
With CCc1nc2c(cnn2CC)c(NC2CCOCC2)c1CNC(=O)c1ccc(NC(=O)CCCCCCCN(C)CCO)cc1 [Example 1A2, N-{[1,6-diethyl-4-(tetrahydro-2H-pyran-4-ylamino)-1H-pyrazolo[3,4-b]pyridin-5-yl]methyl}-4-({8-[(2-hydroxyethyl)(methyl)amino]octanoyl}amino)benzamide monohydrochloride] the “percentage inhibition (arithmetic mean) of LPS-induced nasal neutrophilia” value (shortened to “percentage inhibition (arithmetic mean)”) ([3]; about 1 micrograms/kg) was “essentially no inhibition”, the “percentage inhibition (arithmetic mean)” value ([3]; about 3 micrograms/kg) was “small and non-statistically-significant inhibition” and the “percentage inhibition (arithmetic mean)” value ([3]; about 10 micrograms/kg) was “about 62%”. The “percentage inhibition (arithmetic mean)” value ([3]; about 100 micrograms/kg) was “about 79%”, the “arithmetic mean percentage inhibition of LPS-induced pulmonary neutrophilia” value (from here on “arithmetic mean percentage inhibition”) ([2]; about 10 micrograms/kg) was “about 29%” and the “arithmetic mean percentage inhibition” value ([2]; about 30 micrograms/kg) was “about 44%”. For the same compound, the “arithmetic mean percentage inhibition” value ([2]; about 100 micrograms/kg) was “about 39%” and the “arithmetic mean percentage inhibition” value ([2]; about 300 micrograms/kg) was “about 55%”.
In the case of CCc1nc2c(cnn2CC)c(NC2CCOCC2)c1CNC(=O)c1ccc(NC(=O)CCCCCCCN(C)CCO)cc1 [Example 1B, N-{[1,6-diethyl-4-(tetrahydro-2H-pyran-4-ylamino)-1H-pyrazolo[3,4-b]pyridin-5-yl]methyl}-4-({8-[(2-hydroxyethyl)(methyl)amino]octanoyl}amino)benzamide], the “percentage mean inhibition” value ([2]; about 10 micrograms/kg) is reported as “about 29%”, the “percentage mean inhibition” value ([2]; about 30 micrograms/kg) is reported as “about 75%” and the “percentage mean inhibition” value ([2]; about 100 micrograms/kg) is reported as “about 59%”.
In the case of CCc1nc2c(cnn2CC)c(NC2CCOCC2)c1CNC(=O)c1ccc(NC(=O)CCCCCCCN(C)CCO)cc1 [N-{[1,6-diethyl-4-(tetrahydro-2H-pyran-4-ylamino)-1H-pyrazolo[3,4-b]pyridin-5-yl]methyl}-4-({8-[(2-hydroxyethyl)(methyl)amino]octanoyl}amino)benzamide], the duration of action ([2]; after i.t. administration to the rat as a dry powder) is reported as 4 h and the duration of action ([2]; after i.t. administration to the rat as an aqueous solution) is reported as ≥ 2 h.
For COc1ccc([C@]2(C#N)CC[C@@H](C(=O)O)CC2)cc1OC1CCCC1 [cilomilast], the “forced expiratory volume in 1s (FEV1) in COPD patients” value ([4]; 15 mg orally twice daily) is given as “appears to improve forced expiratory volume in 1s (FEV1)” and the “antiinflammatory effects in COPD patients” value ([4]; human, in vivo) is given as “appears to have anti-inflammatory effects; also recorded: appears to have antiinflammatory effects”.
For Nc1nc2c([nH]1)c(=O)n(CC1CC1)c(=O)n2CC1CC1 [cipamfylline], the “effectiveness in the treatment of atopic dermatitis patients” value ([1]; 0.15% cream versus vehicle and hydrocortisone 17-butyrate (0.1%) cream) is given as “significantly more effective than vehicle, but significantly less effective than hydrocortisone 17-butyrate (0.1%) cream”.
In the case of O=C(Nc1c(Cl)cncc1Cl)c1ccc(OC(F)F)c(OCC2CC2)c1 [roflumilast], the “FEV1 in COPD patients” value ([4]; human, in vivo) is listed as “appears to show small improvements in FEV1” and the “rhinal airflow during the treatment period (compared to placebo)” value [5] is listed as “effective in improving rhinal airflow”.
